In patent US8748170B2, “Polypeptides derived from cyclin B1 and uses thereof” (priority 2008, dated 2014):

Tested on: CD4+T cells
Experiment: CFSE dilution proliferation of CD4+ T cells in PBMC of heavy smokers
Format: cell-based, human
Details: PBMC from 5 heavy smokers negative for lung cancer by CT; peptide approximately 2 μg/ml; 6 days; one or more of the peptides
From the text: The amino acid sequence of the whole CB1 protein was synthesized as a series of peptides (generally 12-15 amino acids in length) that overlap by 11 amino acids (each peptide is offset by 4 amino acids). This approach is used when HLA of the subjects being tested is unknown and when there is a potential for multiple reactive peptides restricted by a variety of HLA molecules. It is also useful when the blood collection volumes are too small for dendritic cell generation, and other antigen presenting cells in the peripheral blood are counted on to present peptides without the need for further antigen processing.
Peripheral blood was collected into vaccutainers containing heparin sulfate and processed to obtain peripheral blood mononuclear cells (PBMC) by density centrifugation. PBMC were washed in PBS and labeled with 5 μM CFSE (Invitrogen) in warmed 0.1% FBS in PBS for 10 minutes at 37° C. The CFSE was quenched with 3 volumes of ice cold complete RPMI and incubated for 5 minutes before washes with complete RPMI. PBMC were then resuspended in media containing anti-CD28 and anti-CD49d antibodies for additional costimualtion. Wells coated with anti-CD3 were used as positive controls. Peptides were added at approximately 2 μg/ml. No peptide was added to negative control wells. After 6 days, cells were stained for cell surface markers and tested for proliferation by CFSE dilution using flow cytometry. Peptides that induced proliferation above that seen in the wells receiving no peptides were considered to be stimulatory.

Sequence	CD4+ T cell proliferation in response to peptide, above background (no peptide)
KFRLLQETMYMTVSI [Pep61, cyclin B1 amino acids 215-229]	show proliferation
MYMTVSIIDRFM [Pep63, cyclin B1 amino acids 223-234]	show proliferation
LQETMYMTVSIIDRF [Pep62, cyclin B1 amino acids 219-233]	show proliferation
